Here are results for 8 molecules from publication PMC10031131, “Design, synthesis and evaluation of a series of potential prodrugs of a Bruton’s tyrosine kinase (BTK) inhibitor” (Frontiers in Pharmacology, 2023).

≈ marks a conversion by molar mass, not a printed value. Like-named read-outs stand apart in the source and are kept apart here.

The nature of series [1]: Human plasma stability assay. In kind it is in vitro ADME. Here is the method:
(§1) The in vitro stability in human plasma for the test compounds was investigated using procaine as the reference compound. The frozen human plasma was quickly thawed at 37°C. The spiking solution was made by combining 10 µL of a 10 mM compound stock solution with 990 µL of DMSO. The plasma and spiking solution were pre-warmed at 37°C for 5 min. Then 7 µL of the pre-warmed spiking solution was added into the 693 µL plasma evenly. The tests were carried out in duplicate in a 37°C shaking water bath. At 0, 5, 15, 30, 60, and 120 min, 100 µL samples were collected and added to a 400 µL solution containing an internal standard (IS). After quenching, the samples were vortexed for 5 min (600 rpm) and then centrifuged at 4,000 rpm for 20 min. LC-MS was used to analyze the clear supernatants. The values are the mean of two separate experiments.
as §1, with “at 37 °C.” for “at 37°C.”, “at 37 ℃” for “at 37°C”, “a 37 °C” for “a 37°C”

The target in series [2] is T1, BTK (Homo sapiens, UniProt Q06187).
T1 construct: purchased Carna Biosciences
T1 sequence (Q06187 whole entry): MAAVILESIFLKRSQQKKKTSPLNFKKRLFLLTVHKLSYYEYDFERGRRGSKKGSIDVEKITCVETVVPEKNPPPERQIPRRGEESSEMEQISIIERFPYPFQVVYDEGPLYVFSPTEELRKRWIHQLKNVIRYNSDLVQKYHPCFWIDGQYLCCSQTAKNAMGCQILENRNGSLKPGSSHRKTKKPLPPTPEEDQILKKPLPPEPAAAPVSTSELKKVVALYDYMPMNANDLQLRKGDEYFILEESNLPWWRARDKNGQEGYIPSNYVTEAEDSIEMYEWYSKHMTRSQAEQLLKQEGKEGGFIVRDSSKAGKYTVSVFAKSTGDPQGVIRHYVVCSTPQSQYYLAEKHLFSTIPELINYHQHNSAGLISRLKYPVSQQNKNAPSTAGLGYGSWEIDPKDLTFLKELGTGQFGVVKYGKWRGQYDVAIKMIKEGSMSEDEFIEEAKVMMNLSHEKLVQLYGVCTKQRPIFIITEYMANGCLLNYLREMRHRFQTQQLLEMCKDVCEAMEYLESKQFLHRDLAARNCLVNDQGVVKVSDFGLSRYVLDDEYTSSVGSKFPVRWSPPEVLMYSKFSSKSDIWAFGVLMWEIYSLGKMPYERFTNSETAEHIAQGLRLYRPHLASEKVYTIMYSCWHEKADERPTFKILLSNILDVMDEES
Briefly: Cell-free kinase enzymology assay (HTRF KinEase). In kind it is biochemical. The method, then:
FIGURE 4 (A) Enzymatic activities of parent 4 and prodrugs 5a-c for BTK. Kinase enzymology assays were carried out in accordance with the protocols described in the HTRF KinEase assays. (B) Time-dependent plasma stability assay.
The kinase (BTK) was acquired from Carna Biosciences. Kinase acitivity assays were carried out based on Cisbio Bioassays’ HTRF® technology. At room temperature, kinase and substrate were combined with compounds in varied concentrations, followed by adding ATP to activate the enzymatic reactions. EDTA solution was added to stop the reactions after 1 h, followed by the addition of streptavidin XL665 conjugates and anti-phosphotyrosine antibodies. The mixtures were incubated for an additional 1 h at room temperature before reading on a plate reader (EnVision®, Perkin Elmer). GraphPad Prism was used to analyze the data.

Series [3] in a line: Thermodynamic solubility determination assay. The series is classed as physicochemical. The note with it: Britton-Robinson buffer (pH 6.5); for solubility thermodynamic: 25 °C, aqueous buffer, thermodynamic from solid, average of two measurements, read-out: S, pH 6.5 (thermodynamic solubility). Here is the method: Prior to mixing with the appropriate medium, the test chemical was accurately weighed into an appropriately sized screw-capped glass vial. The generated slurry was sonicated at room temperature for 20 min and at 50°C for 15 min, and then agitated at room temperature for at least two days before the crystallinity of the remaining solid was examined using a polarized light microscope. If crystallinity was not observed, more time for equilibration was allowed. The slurry was aliquoted into 1.5 mL centrifuge tubes on the day of analysis and centrifuged at 15,000 rpm for 20 min at 25°C. The supernatant’s concentration was determined by UV-vis (YOKE, T-U7S).

Series [4] can be described thus: Chemical stability in DMSO or buffer by HPLC. The series is classed as physicochemical. Particulars: HPLC analysis of in vitro stability after 24 h at room temperature.
On the set-up of series [5]: method as in Li et al., 2014. The note with it: ref Li et al., 2014; cited from earlier work.
Details of series [6]: method as in Li et al., 2014. The note with it: FaSSIF (Fasted State Simulated Intestinal Fluid, pH 6.5) medium; ref Li et al., 2014; cited from earlier work.
Series [7] concerns the target T1, BTK. The note with it: Figure 2; ref Kuglstatter et al., 2011; cited from earlier work.
The test system of the next series is BTK^C481S. Details: method as in Gui et al., 2019. Particulars: Figure 2; ref Gui et al., 2019; cited from earlier work.
Setting [8] is: DMSO, read-out: DMSO (% remaining).
The mark [9] stands for this setting: buffer pH 7.4, read-out: Buffer, pH 7.4 (% remaining).

What is called IC50 is the midpoint of a concentration-inhibition curve. In general, solubility (thermodynamic) refers to solubility found after equilibrating the solid with the medium. A word on the fraction remaining: it is the share of the starting amount still present when the sample was taken.

In the case of `CCN(CC)CCOC(=O)c1ccc(N)cc1` [Procaine, reference compound], the “Analyte Peak Area” value is listed as “BLOD” in series [1] (human plasma, 37°C, time 15 min, duplicates); “BLOD” in series [1] (human plasma, 37°C, time 30 min, duplicates); “BLOD” in series [1] (human plasma, 37°C, time 60 min, duplicates); “BLOD” in series [1] (human plasma, 37°C, time 120 min, duplicates).

`CC(=O)Nc1cc(Nc2ncc(NC(=O)c3cc(NC(=O)c4cccc(C(F)(F)F)c4)ccc3C)cn2)ccc1O` [Compound 4] gave an IC50 at BTK [2] of 14 nM. The thermodynamic solubility in series [3] was determined as 6.6 µM (≈ 3.73 µg/mL). The amount remaining at 24 h in series [4] (setting [8]) and in series [4] (setting [9]) was 100% each time.

As to `C=CC(=O)Nc1cccc(Nc2ncc(NC(=O)c3cc(NC(=O)c4cccc(C(F)(F)F)c4)ccc3C)cn2)c1` [Compound 2, reference compound], the thermodynamic solubility in series [3] came out at 2 µM (≈ 1.12 µg/mL). Further, the “bioavailability (F%)” value in series [5] is given as 0.9%. The share remaining at 24 h in series [4] (setting [8]) came out at 100%. Further, the “solubility in FaSSIF” value in series [6] was 7.02 µM (≈ 3.93 µg/mL).

As for `CC(=O)Nc1cc(Nc2ncc(NC(=O)c3cc(NC(=O)c4cccc(C(F)(F)F)c4)ccc3C)cn2)ccc1OC(=O)CN1CCN(C)CC1` [Compound 5a], at BTK [2], the IC50 was found to be 135 nM and the “fold lower inhibitory potential for BTK compared to parent 4” value (“fold lower inhibitory potential for BTK” below) was 10 fold. The solubility (thermodynamic) in series [3] was 88 µM (≈ 62 µg/mL). In addition, the share remaining at 24 h in series [4] (setting [8]) came out at 100%. Besides, in series [4] (setting [9]), the fraction remaining at 24 h came out at 99%. The “Analyte Peak Area” value in series [1] is reported as “BLOD”. For the same molecule, the “time for conversion to parent 4 in human plasma” value in series [1] (human, 1 µM) is “less than 2 h”.

As to `CC(=O)Nc1cc(Nc2ncc(NC(=O)c3cc(NC(=O)c4cccc(C(F)(F)F)c4)ccc3C)cn2)ccc1OC(=O)CN(C)C` [Compound 5c, 2-Acetamido-4-((5-(2-methyl-5-(3-(trifluoromethyl)benzamido)benzamido)pyrimidin-2-yl)amino)phenyl dimethylglycinate], on BTK [2], the IC50 is 124 nM and the “fold lower inhibitory potential for BTK” value is reported as 9 fold. For the same molecule, the solubility (thermodynamic) in series [3] was found to be 4.6 µM (≈ 2.99 µg/mL). The share remaining at 24 h in series [4] (setting [8]) came out at 100%.

As to `Cc1ccc(NC(=O)/C=C/c2ccccc2)cc1C(=O)Nc1cnc2[nH]c(-c3ccccc3)nc2c1` [Compound 1], the IC50 on BTK [7] was 5600 nM.

For the molecule `CC(=O)Nc1cc(Nc2ncc(NC(=O)c3cc(NC(=O)c4cccc(C(F)(F)F)c4)ccc3C)cn2)ccc1OC(=O)CN` [Compound 5b, 2-Acetamido-4-((5-(2-methyl-5-(3-(trifluoromethyl)benzamido)benzamido)pyrimidin-2-yl)amino)phenyl glycinate], on BTK [2], the IC50 is 92 nM and the “fold lower inhibitory potential for BTK” value turned out to be 7 fold. Moreover, in series [3], the solubility (thermodynamic) stood at 22 µM (≈ 13.7 µg/mL) and the “increase of solubility compared to parent 4” value is reported as “thrice”. Also, the amount remaining at 24 h in series [4] (setting [8]) was 100%. For the same molecule, the share remaining at 24 h in series [4] (setting [9]) was found to be 98%.

Regarding `Cc1cc(Nc2ncc3c(n2)N(C)CN(c2cc(NC(=O)c4cccc(C(F)(F)F)c4)ccc2C)C3)n(C)n1` [Compound 3], the IC50 in the series with BTK^C481S is 11 nM.
